In US5629324A, “Thrombin inhibitors” (Merck & Co., Inc., priority 1995, dated 1997):

Biological target: T1, human a-thrombin (Homo sapiens, UniProt P00734)
T1 construct: human a-thrombin
Assay: Proteinase inhibition, human a-thrombin
Assay type: biochemical
Details: 25° C., 0.05M TRIS buffer pH 7.4, 0.15M NaCl, 0.1% PEG
Description: Assays of human a-thrombin and bovine trypsin were performed at 25° C. in 0.05M TRIS buffer pH 7.4, 0.15M NaCl, 0.1% PEG. Trypsin assays also contained 1 mM CaCl2.
Concentrations of stock solutions of Z-GPR-afc were determined from measurements of absorbance at 380 nm of the 7-amino-4-trifluoromethyl coumarin produced upon complete hydrolysis of an aliquot of the stock solution by thrombin.
Times required to achieve equilibration between enzyme and inhibitor were determined in control experiments. Initial velocities of product formation in the absence (Vo) or presence of inhibitor (Vi) were measured. Assuming competitive inhibition, and that unity is negligible compared Km /[S], […] (where [S], [I], and e respectively represent the total concentrations, of substrate, inhibitor and enzyme), the equilibrium constant (Ki) for dissociation of the inhibitor from the enzyme can be obtained from the dependence of Vo /Vi on [I] shown in equation 1.

SMILES | Ki [nM]
N=C(N)N1CCC(CNC(=O)[C@@H]2CCCN2C(=O)C2(O)c3ccccc3-c3ccccc32)CC1 | 1.1
N=C(N)N1CCC(CNC(=O)[C@@H]2CCCN2C(=O)CC(c2ccccc2)c2ccccc2)CC1 | 2.7
